The nature of the data set: Acute toxicity in mice. As to conditions: mouse, in vivo.

`O=C(O)CCCc1ccc(N(CCCl)CCCl)cc1` [CHLORAMBUCIL] returned an LD50 of 49.54 mg⁻¹ kg⁻¹.

The values are drawn from ChEMBL document CHEMBL1136131, “Synthesis of poly(ethylene glycol) with sulfadiazine and chlorambucil end groups and investigation of its antitumor activity” (Bioorg Med Chem Lett, 2003).
